test system: B16 melanoma cells; assay: Caspase-3 activity assay (EnzChek Caspase-3 Assay Kit), caspase-3 induction in tumor cells; format: cell-based, mouse; details: not given; also: test concentration or dose not given here
Description: The EnzChek® Caspase-3 Assay Kit was used to detect apoptosis by assaying for increases in caspase-3 activities. The basis for the assay was rhodamine 110 bis-(N-CBZ-L-aspartyl-L-glutamyl-L-valyl-L-aspartic acid amide) (Z-DEVD-R110). This substrate is a bisamide derivative of rhodamine 110 (R110) containing DEVD peptides covalently linked to each of R110's amino groups, thereby suppressing the dye's visible absorption and its fluorescence. Upon enzymatic cleavage, the nonfluorescent bisamide substrate is converted in a two-step process first to a fluorescent monoamide and then to an even more fluorescent R110.
At least 1×10^6 cells of the lysate were used for each reaction. B16 cells were treated with compounds to induce apoptosis. A negative control was prepared by incubating cells in the absence of compounds. The cells were incubated with compounds for 24 hrs and washed in PBS. Each cell sample or control was resuspended in 50 μL of the 1×cell lysis buffer. Cells were lysed by incubating on ice for 30 minutes, and the lysed cells were centrifuged to pellet the cellular debris. 50 μL of the supernatant was transferred from each sample to individual microplate wells. 50 μL of the 1× cell lysis buffer was used as a no-enzyme control to determine the background fluorescence of the substrate. 50 μL of the 2×substrate working solution was added to each sample and control. The microplate was covered, and the samples were incubated at room temperature for approximately 30 minutes. The fluorescence was measured by a fluorescence microplate reader (excitation/emission ˜496/520 nm) using excitation and emission filters.
The ability of this small molecule inhibitor to inhibit intracellular Sb9 was then evaluated. As a marker for cell penetration, the induction of caspase-3 activity in B16 melanoma cells as a surrogate marker for increased GrB activity was measured.
The induction of caspase-3 activity in B16 melanoma cells as a surrogate marker for increased GrB activity was also measured for other small molecules (compounds of Formulas (V) and (VI) as described herein).

Compared with `CCN(CCO)C(=O)c1ccc2oc(-c3ccc(C(F)(F)F)cc3)nc2c1` [N-ethyl-N-(2-hydroxyethyl)-2-[4-(trifluoromethyl)phenyl]-1,3-benzoxazole-5-carboxamide], `CN(CC(O)CO)C(=O)c1ccc2oc(-c3ccc(C(F)(F)F)cc3)nc2c1` (centres unmarked) [N-(2,3-dihydroxypropyl)-N-methyl-2-[4-(trifluoromethyl)phenyl]-1,3-benzoxazole-5-carboxamide] is lower in “Ratio of caspase-3 activity to Formula (III)” value (“Ratio of caspase-3 activity” for short): 0.1437 for the first, 0.135 for the second.

Going from `O=C(NCCc1ccco1)c1ccc2oc(-c3cccc(F)c3)nc2c1` [2-(3-fluorophenyl)-N-[2-(2-furyl)ethyl]-1,3-benzoxazole-5-carboxamide] to `O=C(NCCCn1cccn1)c1ccc2oc(-c3cccc(F)c3)nc2c1` [2-(3-fluorophenyl)-N-[3-(1H-pyrazol-1-yl)propyl]-1,3-benzoxazole-5-carboxamide], the “Ratio of caspase-3 activity” value rises from 0.09438 to 0.9113.

First: COc1cccc(-c2nc3ccc(C(=O)N4CCOC(C(N)=O)C4)cc3o2)c1 (centres unmarked) [4-{[2-(3-methoxyphenyl)-1,3-benzoxazol-6-yl]carbonyl}morpholine-2-carboxamide]
Second: CCC(=O)C1CCCN(C(=O)c2ccc3nc(-c4cccc(OC)c4)oc3c2)C1 (centres unmarked) [1-(1-{[2-(3-methoxyphenyl)-1,3-benzoxazol-6-yl]carbonyl}-3-piperidinyl)-1-propanone]
The “Ratio of caspase-3 activity” value of the first is higher: 0.1611 for the first, 0.1346 for the second.

Compared with `CCOC(=O)CCNC(=O)c1ccc2nc(-c3cccc(OC)c3)oc2c1` [ethyl N-{[2-(3-methoxyphenyl)-1,3-benzoxazol-6-yl]carbonyl}-beta-alaninate], `COc1cccc(-c2nc3ccc(C(=O)NCc4nnn[nH]4)cc3o2)c1` [2-(3-methoxyphenyl)-N-(1H-tetrazol-5-ylmethyl)-1,3-benzoxazole-6-carboxamide] is higher in “Ratio of caspase-3 activity” value: 0.1049 for the first, 0.3911 for the second.

Going from `COc1cccc(-c2nc3ccc(C(=O)N4CCN(Cc5cccnc5)CC4)cc3o2)c1` [2-(3-methoxyphenyl)-6-{[4-(3-pyridinylmethyl)-1-piperazinyl]carbonyl}-1,3-benzoxazole] to `CCN1CCN(C(=O)c2ccc3oc(-c4cccc(F)c4)nc3c2)CC1` [5-[(4-ethyl-1-piperazinyl)carbonyl]-2-(3-fluorophenyl)-1,3-benzoxazole], the “Ratio of caspase-3 activity” value rises from 0.1411 to 0.6541.

First: O=C(N[C@H]1CCCCNC1=O)c1ccc2oc(-c3cccc(F)c3)nc2c1 [2-(3-fluorophenyl)-N-[(3S)-2-oxo-3-azepanyl]-1,3-benzoxazole-5-carboxamide]
Second: O=C1CCC(NC(=O)c2ccc3nc(-c4ccccc4)oc3c2)C(=O)N1 (centres unmarked) [N-(2,6-dioxopiperidin-3-yl)-2-phenyl-1,3-benzoxazole-6-carboxamide]
The “Ratio of caspase-3 activity” value of the first is higher: 0.771 for the first, 0.6989 for the second.

Compared with `COc1cccc(-c2nc3ccc(C(=O)N4CCC(N(C)C)C4)cc3o2)c1` (centres unmarked) [1-{[2-(3-methoxyphenyl)-1,3-benzoxazol-6-yl]carbonyl}-N,N-dimethyl-3-pyrrolidinamine], `CCN1CCN(C(=O)c2ccc3nc(-c4cccc(OC)c4)oc3c2)[C@@H](C)C1=O` [(3S)-1-ethyl-4-{[2-(3-methoxyphenyl)-1,3-benzoxazol-6-yl]carbonyl}-3-methyl-2-piperazinone] is lower in “Ratio of caspase-3 activity” value: 0.9908 for the first, 0.1434 for the second.

First: COc1cccc(-c2nc3ccc(C(=O)NCC4CCCCO4)cc3o2)c1 (centres unmarked) [2-(3-methoxyphenyl)-N-(tetrahydro-2H-pyran-2-ylmethyl)-1,3-benzoxazole-6-carboxamide]
Second: COc1cccc(-c2nc3ccc(C(=O)N(C)CCC4CCCCO4)cc3o2)c1 (centres unmarked) [2-(3-methoxyphenyl)-N-methyl-N-[2-(tetrahydro-2H-pyran-2-yl)ethyl]-1,3-benzoxazole-6-carboxamide]
The “Ratio of caspase-3 activity” value of the first is higher: 1.425 for the first, 0.1405 for the second.

Going from `Cc1cc(CNC(=O)c2ccc3oc(-c4cccc(F)c4)nc3c2)nn1C` [N-[(1,5-dimethyl-1H-pyrazol-3-yl)methyl]-2-(3-fluorophenyl)-1,3-benzoxazole-5-carboxamide] to `CC(Cn1cncn1)NC(=O)c1ccc2oc(-c3cccc(F)c3)nc2c1` (centres unmarked) [2-(3-fluorophenyl)-N-[1-methyl-2-(1H-1,2,4-triazol-1-yl)ethyl]-1,3-benzoxazole-5-carboxamide], the “Ratio of caspase-3 activity” value falls from 0.123 to 0.1014.

Compared with `COc1cccc(-c2nc3ccc(C(=O)N(C)Cc4nnc(C)o4)cc3o2)c1` [2-(3-methoxyphenyl)-N-methyl-N-[(5-methyl-1,3,4-oxadiazol-2-yl)methyl]-1,3-benzoxazole-6-carboxamide], `COc1cccc(-c2nc3ccc(C(=O)N(C)CC(O)c4ccccc4)cc3o2)c1` (centres unmarked) [N-(2-hydroxy-2-phenylethyl)-2-(3-methoxyphenyl)-N-methyl-1,3-benzoxazole-6-carboxamide] is lower in “Ratio of caspase-3 activity” value: 0.7091 for the first, 0.1589 for the second.

Going from `CC(C)NC(=O)CCNC(=O)c1ccc2nc(-c3ccccc3)oc2c1` [3-[(2-phenyl-1,3-benzoxazol-6-yl)formamido]-N-(propan-2-yl)propanamide] to `CC1(C)CC(NC(=O)c2ccc3nc(-c4ccccc4)oc3c2)CO1` (centres unmarked) [N-(5,5-dimethyloxolan-3-yl)-2-phenyl-1,3-benzoxazole-6-carboxamide], the “Ratio of caspase-3 activity” value falls from 1.371 to 0.09307.

In the case of `CC(O)CNC(=O)c1ccc2oc(-c3ccc(C(F)(F)F)cc3)nc2c1` (centres unmarked) [N-(2-hydroxypropyl)-2-[4-(trifluoromethyl)phenyl]-1,3-benzoxazole-5-carboxamide], the “Ratio of caspase-3 activity” value is reported as 0.0922.

same assay, conditions: relative to compound of Formula (III)

Compared with `CCN(C)C(=O)c1cc2c(cc1O)OCO2` [N-ethyl-6-hydroxy-N-methyl-2H-1,3-benzodioxole-5-carboxamide], `CCN(C)C(=O)c1cc(O)c(O)cc1C` [N-ethyl-4,5-dihydroxy-N,2-dimethylbenzamide] is lower in “Caspase-3 induction, Normalized to Formula (III) (%)” value: −3.424% for the first, −33.2116% for the second.

Compared with `COc1cc(Br)c(C(=O)NCC2CCOC2)cc1OC` (centres unmarked) [2-bromo-4,5-dimethoxy-N-[(oxolan-3-yl)methyl]benzamide], `COc1cc(Br)c(C(=O)NCC2CCOCC2)cc1OC` [2-bromo-4,5-dimethoxy-N-[(oxan-4-yl)methyl]benzamide] is lower in “Caspase-3 induction, Normalized to Formula (III) (%)” value: −2.142% for the first, −43.6422% for the second.

First: CN(C)c1nc2c(C(=O)NCc3ccccc3)cccc2o1 [N-benzyl-2-(dimethylamino)-1,3-benzoxazole-4-carboxamide]
Second: CN(C)c1nc2c(C(=O)NC3CCCC3)cccc2o1 [N-cyclopentyl-2-(dimethylamino)-1,3-benzoxazole-4-carboxamide]
The “Caspase-3 induction, Normalized to Formula (III) (%)” value of the first is higher: 61.2163% for the first, −20.9929% for the second.

Compared with `O=C(NC1CCCC1)c1ccc2nc(S)oc2c1` [N-cyclopentyl-2-sulfanyl-1,3-benzoxazole-6-carboxamide], `Cc1nc2c(C(=O)NC3CCCC3)cccc2o1` [N-cyclopentyl-2-methyl-1,3-benzoxazole-4-carboxamide] is higher in “Caspase-3 induction, Normalized to Formula (III) (%)” value: −81.3264% for the first, −30.2879% for the second.

Compared with `COc1cc(Br)c(C(=O)NC2CCCC2)cc1OC` [2-bromo-N-cyclopentyl-4,5-dimethoxybenzamide], `COc1cc(Br)c(C(=O)NCCN(C)C)cc1OC` [2-bromo-N-[2-(dimethylamino)ethyl]-4,5-dimethoxybenzamide] is lower in “Caspase-3 induction, Normalized to Formula (III) (%)” value: −49.8913% for the first, −70.1327% for the second.

First: O=C(NCc1ccccc1)c1ccc2nc(C3CCCCC3)oc2c1 [N-benzyl-2-cyclohexyl-1,3-benzoxazole-6-carboxamide]
Second: CCN(C)C(=O)c1ccc2nc(C3CCCCC3)oc2c1 [2-cyclohexyl-N-ethyl-N-methyl-1,3-benzoxazole-6-carboxamide]
The “Caspase-3 induction, Normalized to Formula (III) (%)” value of the first is lower: −61.2418% for the first, 1.1915% for the second.

First: COCCCNC(=O)c1ccc2nc(C3CC3)oc2c1 [2-cyclopropyl-N-(3-methoxypropyl)-1,3-benzoxazole-6-carboxamide]
Second: COCCCNC(=O)c1cc(O)c(O)cc1C [4,5-dihydroxy-N-(3-methoxypropyl)-2-methylbenzamide]
The “Caspase-3 induction, Normalized to Formula (III) (%)” value of the first is higher: −4.759% for the first, −55.7377% for the second.

Compared with `CCN(C)C(=O)c1ccc2nc(C(F)(F)C(F)(F)F)oc2c1` [N-ethyl-N-methyl-2-(1,1,2,2,2-pentafluoroethyl)-1,3-benzoxazole-6-carboxamide], `CCN(C)C(=O)c1ccc(O)c(OC)c1` [N-ethyl-4-hydroxy-3-methoxy-N-methylbenzamide] is lower in “Caspase-3 induction, Normalized to Formula (III) (%)” value: −28.449% for the first, −33.3917% for the second.

First: COc1cc(C(=O)NCC2CCOCC2)ccc1O [4-hydroxy-3-methoxy-N-[(oxan-4-yl)methyl]benzamide]
Second: COc1cc(C(=O)NCC2CCCC2)ccc1OCCC(C)C [N-(cyclopentylmethyl)-3-methoxy-4-(3-methylbutoxy)benzamide]
The “Caspase-3 induction, Normalized to Formula (III) (%)” value of the first is lower: −76.3077% for the first, −50.1028% for the second.
